Data as given in patent US20140093558A1, “STABLE CRYSTAL MODIFICATIONS OF DOTAP CHLORIDE” (MERCK PATENT GMBH, priority 2011, published 2014).
Read-outs that look alike come from different tables or passages of the source.

Tests used:
[1] = Solubility in acetonitrile; type: physicochemical; conditions: room temperature
[2] = Hygroscopicity / handling properties; type: physicochemical; conditions: crystalline forms
[3] = Storage stability of crystalline DOTAP chloride, remaining content by HPLC; type: physicochemical; conditions: for remaining content of (2R,S)-DOTAP chloride (HPLC) / remaining content/purity of (2R,S)-DOTAP chloride (HPLC): exclusion of air; for stability values compared with crystalline (2R,S)-DOTAP chloride: storage as in Tables 1 and 1a
Procedure: In order to determine the stability of crystalline (2R,S)-DOTAP chloride, the substance is stored at 25° C. and 60% relative humidity (table 1) or at 40° C. and 75% relative humidity (table 1a) with exclusion of air. The remaining content of (2R,S)-DOTAP chloride is measured at periodic intervals and quoted in comparison to the initial value.
The purity and content of DOTAP chloride are determined by means of HPLC using the following method:
HPLC equipment: Agilent 1200 HPLC • column: ODS-3: 150×3 mm, 3 μm. GI Sciences: lnertsil • eluent A: 10 mM pentanesulfonic acid sodium salt in 0.085%ic aqueous H3PO4 • eluent B: 3.85 mM pentanesulfonic acid sodium salt in 94% acetonitrile containing 0.085%ic aqueous H3PO4
• runtime: 25 min • flow: 1.5 ml/min • pressure: ca. 220 bar • column temperature: 50° C. • injection volume: 10 μl
The stability determination can be repeated at any desired time, the values indicated in Tables 1 and 1a are reproducible.

[4] = storage under protective gas at −20° C.; cited from earlier work
[5] = amorphous form, normal atmospheric humidity levels; cited from earlier work
[6] = some in-vitro studies, compared with DOTAP chloride; cited from earlier work
[7] = 25° C., 60% relative humidity, 0 months
[8] = 25° C., 60% relative humidity, 3 months
[9] = 25° C., 60% relative humidity, 6 months
[10] = 25° C., 60% relative humidity, 9 months
[11] = 25° C., 60% relative humidity, 12 months
[12] = 25° C., 60% relative humidity, 24 months
[13] = 25° C., 60% relative humidity, 36 months
[14] = 40° C., 75% relative humidity, 0 months
[15] = 40° C., 75% relative humidity, 3 months
[16] = 40° C., 75% relative humidity, 6 months
[17] = 40° C., 75% relative humidity, 9 months
[18] = 40° C., 75% relative humidity, 12 months

Compound: CCCCCCCC/C=C\CCCCCCCC(=O)OCC(C[N+](C)(C)C)OC(=O)CCCCCCC/C=C\CCCCCCCC.[Cl-] (racemic) [(2R,S)-DOTAP chloride crystalline, (R,S)-1,2-dioleoyl-3-propyltrimethylammonium chloride]
- solubility in acetonitrile [1]: virtually insoluble
- hygroscopicity [2]: remarkably reduced hygroscopicity
- remaining content of (2R,S)-DOTAP chloride (HPLC) [3, 7]: 99.5 % by weight
- remaining content/purity of (2R,S)-DOTAP chloride (HPLC) [3, 7]: 99.7 Area-%
- remaining content of (2R,S)-DOTAP chloride (HPLC) [3, 8]: 99.7 % by weight
- remaining content/purity of (2R,S)-DOTAP chloride (HPLC) [3, 8]: 99.6 Area-%
- remaining content of (2R,S)-DOTAP chloride (HPLC) [3, 9]: 99.4 % by weight
- remaining content/purity of (2R,S)-DOTAP chloride (HPLC) [3, 9]: 99.5 Area-%
- remaining content of (2R,S)-DOTAP chloride (HPLC) [3, 10]: 99.2 % by weight
- remaining content/purity of (2R,S)-DOTAP chloride (HPLC) [3, 10]: 99.2 Area-%
- remaining content of (2R,S)-DOTAP chloride (HPLC) [3, 11]: 99.5 % by weight
- remaining content/purity of (2R,S)-DOTAP chloride (HPLC) [3, 11]: 99.5 Area-%
- remaining content of (2R,S)-DOTAP chloride (HPLC) [3, 12]: 99.5 % by weight
- remaining content/purity of (2R,S)-DOTAP chloride (HPLC) [3, 12]: 99.7 Area-%
- remaining content of (2R,S)-DOTAP chloride (HPLC) [3, 13]: 99.7 % by weight
- remaining content/purity of (2R,S)-DOTAP chloride (HPLC) [3, 13]: 99.3 Area-%
- degradation on storage ([3]; 25 ± 2° C., after 36 months): The above stability data confirms that crystalline DOTAP chloride is a stable substance. Even after 36-months no significant degradation was observed for the samples stored at 25 ± 2 °C
- remaining content of (2R,S)-DOTAP chloride (HPLC) [3, 14]: 99.5 % by weight
- remaining content/purity of (2R,S)-DOTAP chloride (HPLC) [3, 14]: 99.7 Area-%
- remaining content of (2R,S)-DOTAP chloride (HPLC) [3, 15]: 99.6 % by weight
- remaining content/purity of (2R,S)-DOTAP chloride (HPLC) [3, 15]: 99.6 Area-%
- remaining content of (2R,S)-DOTAP chloride (HPLC) [3, 16]: 99.6 % by weight
- remaining content/purity of (2R,S)-DOTAP chloride (HPLC) [3, 16]: 99.4 Area-%
- remaining content of (2R,S)-DOTAP chloride (HPLC) [3, 17]: 98.9 % by weight
- remaining content/purity of (2R,S)-DOTAP chloride (HPLC) [3, 17]: 99.3 Area-%
- remaining content of (2R,S)-DOTAP chloride (HPLC) [3, 18]: 99.7 % by weight
- remaining content/purity of (2R,S)-DOTAP chloride (HPLC) [3, 18]: 99.4 Area-%
- degradation on storage ([3]; accelerated conditions, 40 ± 2° C., after 12 months): The above stability data confirms that crystalline DOTAP Chloride is a stable substance. Even at accelerated conditions after 12-months no significant degradation was observed for the samples stored at 40 ± 2 °C
- stability determined by HPLC in relation to the starting value ([3]; stored at 25° C. for 36 months): higher than 99 % by weight and area-%
- stability determined by HPLC in relation to the starting value ([3]; stored at 40° C. for 12 months): higher than 99 % by weight and area-%

Compound: (R)-1,2-dioleoyl-3-propyltrimethylammonium chloride [Crystalline (2R)-DOTAP chloride]
- hygroscopicity [2]: remarkably reduced hygroscopicity
- stability values compared with crystalline (2R,S)-DOTAP chloride [3]: Crystalline (2R)- and (2S)-DOTAP chloride show comparable stability values.

Compound: CCCCCCCC/C=C\CCCCCCCC(=O)OCC(C[N+](C)(C)C)OC(=O)CCCCCCC/C=C\CCCCCCCC.[Cl-] (stereo not shown) [amorphous DOTAP chloride, 1,2-dioleoyloxy-3-trimethylammonium propane chloride]
- shelf life guaranteed by the manufacturer [4]: about 6 months
- hygroscopicity [5]: extremely hygroscopic

Compound: CCCCCCCC/C=C\CCCCCCCC(=O)OCC(C[N+](C)(C)C)OC(=O)CCCCCCC/C=C\CCCCCCCC.COS(=O)(=O)[O-] (stereo not shown) [DOTAP methylsulfate]
- transfection rate [6]: better transfection rates than DOTAP chloride

Compound: (S)-1,2-dioleoyl-3-propyltrimethylammonium chloride [Crystalline (2S)-DOTAP chloride]
- hygroscopicity [2]: remarkably reduced hygroscopicity
- stability values compared with crystalline (2R,S)-DOTAP chloride [3]: Crystalline (2R)- and (2S)-DOTAP chloride show comparable stability values.
